# What was measured:
# Assay in all cases: ≥ marks a high value that may be exact or a test limit, other limits are often not marked, values filed in µg/mL are converted to µM
# Candida albicans = system: Candida albicans
# [1] = system: Escherichia coli ATCC 25922
# Klebsiella pneumoniae = system: Klebsiella pneumoniae
# [2] = system: Staphylococcus aureus ATCC 25923
# Bacillus subtilis = system: Bacillus subtilis
# Staphylococcus aureus = system: Staphylococcus aureus
# Escherichia coli = system: Escherichia coli
# [3] = system: Candida albicans ATCC 10231
# [4] = system: Pseudomonas aeruginosa ATCC 27853
# [5] = system: Staphylococcus aureus ATCC 29213
# [6] = system: Klebsiella pneumoniae ATCC 700603
# [7] = system: Bacillus subtilis ATCC 6633
# [8] = system: Staphylococcus epidermidis ATCC 12228
# [9] = system: Candida albicans ATCC 90028
MIC (Candida albicans) [µM],MIC [1] [µM],MIC [2] [µM],MIC [4] [µM],Compound,also measured
384,96.1,> 192,,CC[C@H](C)[C@H](NC(=O)CNC(=O)[C@H](CC(N)=O)NC(=O)[C@@H](NC(=O)[C@H](C)NC(=O)[C@H](CC(N)=O)NC(=O)[C@H](CC(C)C)NC(=O)[C@H](C)NC(=O)[C@H](C)NC(=O)[C@H](CCCN=C(N)N)NC(=O)CNC(=O)[C@H](C)NC(=O)[C@H](C)NC(=O)[C@H](C)NC(=O)[C@H](C)NC(=O)[C@H](CCSC)NC(=O)[C@H](CC(=O)O)NC(=O)[C@H](CCCCN)NC(=O)[C@@H](NC(=O)[C@H](CO)NC(=O)[C@H](CO)NC(=O)[C@H](CCCN=C(N)N)NC(=O)[C@H](CC(C)C)NC(=O)[C@@H](N)CO)[C@@H](C)CC)C(C)C)C(=O)N[C@H](C(=O)N[C@@H](CC(N)=O)C(=O)N1CCC[C@H]1C(N)=O)C(C)C [SLRSSIKDMAAAAGRAALNAVNGIVNP],MIC (Klebsiella pneumoniae): > 189 µM
1.18,,,,CC(C)C[C@H](NC(=O)[C@H](C)NC(=O)[C@H](CC(C)C)NC(=O)[C@H](CC(N)=O)NC(=O)[C@H](CCCCN)NC(=O)[C@H](Cc1ccccc1)NC(=O)[C@@H](NC(=O)[C@H](CC(=O)O)NC(=O)[C@H](CC(C)C)NC(=O)[C@H](Cc1ccccc1)NC(=O)CN)[C@@H](C)O)C(=O)N[C@@H](CC(N)=O)C(=O)N[C@@H](C)C(=O)N[C@@H](C)C(=O)N[C@@H](CCCCN)C(=O)N[C@@H](CO)C(=O)N[C@@H](C)C(=O)NCC(=O)N[C@H](C(=O)N[C@@H](CO)C(=O)N[C@H](C(=O)N[C@@H](CC(C)C)C(=O)N[C@@H](CC(N)=O)C(=O)N[C@@H](CO)C(=O)N[C@@H](CC(C)C)C(=O)N[C@@H](CO)C(=O)N[C@H]1CSSC[C@@H](C(=O)O)NC(=O)[C@H]([C@@H](C)O)NC(=O)[C@H](CCCCN)NC(=O)[C@H](Cc2ccccc2)NC(=O)[C@H](CC(C)C)NC(=O)[C@H](CCCCN)NC1=O)C(C)C)C(C)C [GFLDTFKNLALNAAKSAGVSVLNSLSCKLFKTC],MIC (Bacillus subtilis): 2.36 µM; MIC (Staphylococcus aureus): 2.36 µM; MIC (Escherichia coli): 4.71 µM
,,,9.39,CC[C@H](C)[C@H](NC(=O)[C@H](CC(C)C)NC(=O)[C@H](CC(C)C)NC(=O)CNC(=O)[C@H](CCCCN)NC(=O)[C@H](CC(C)C)NC(=O)[C@H](CCCCN)NC(=O)[C@@H]1CCCN1C(=O)[C@H](CC(C)C)NC(=O)[C@H](CC(C)C)NC(=O)[C@H](CC(C)C)NC(=O)[C@H](CCCCN)NC(=O)[C@H](CC(C)C)NC(=O)[C@H](CC(C)C)NC(=O)[C@H](CCCCN)NC(=O)[C@@H](N)Cc1ccc(O)cc1)C(=O)N[C@@H](CCCCN)C(=O)N[C@@H](CC(C)C)C(N)=O [YKLLKLLLPKLKGLLIKL],MIC [3]: 77.6 µM; MIC [5]: 2.32 µM
,50,50,50,CC(=O)N[C@@H](CC(C)C)C(=O)N[C@@H](Cc1ccccc1)C(=O)N[C@@H](CCCCN)C(=O)N[C@@H](CCCCN)C(=O)N[C@@H](CC(N)=O)C(=O)N[C@@H](CCCCN)C(=O)N[C@@H](CC(C)C)C(=O)N[C@@H](Cc1c[nH]c2ccccc12)C(=O)N[C@@H](Cc1ccccc1)C(=O)N[C@@H](CCCCN)C(=O)N[C@@H](CO)C(=O)N[C@@H](CCCCN)C(=O)N[C@@H](CCCCN)C(=O)N[C@@H](Cc1c[nH]c2ccccc12)C(=O)N[C@@H](CC(C)C)C(N)=O [LFKKNKLWFKSKKWL],MIC [6]: 50 µM; MIC [7]: 6.4 µM; MIC [8]: 25 µM
,25,3,,CC[C@H](C)[C@H](NC(=O)[C@H](C)NC(=O)CNC(=O)[C@H](CC(C)C)NC(=O)[C@@H](N)Cc1ccccc1)C(=O)N[C@@H](C)C(=O)NCC(=O)N[C@H](C(=O)N[C@@H](C)C(=O)N[C@@H](C)C(=O)N[C@@H](CCCCN)C(=O)N[C@@H](Cc1ccccc1)C(=O)N[C@@H](CC(C)C)C(=O)N1CCC[C@H]1C(=O)N[C@@H](CCCCN)C(=O)N[C@H](C(=O)N[C@@H](Cc1ccccc1)C(=O)N[C@H]1CSSC[C@@H](C(=O)O)NC(=O)[C@H](CCCCN)NC(=O)[C@H](CCCCN)NC(=O)[C@H]([C@@H](C)O)NC(=O)[C@H]([C@@H](C)CC)NC(=O)[C@H](Cc2ccccc2)NC1=O)C(C)C)C(C)C [FLGAIAGVAAKFLPKVFCFITKKC],MIC [9]: 3 µM

# From DBAASP
